In patent US9988341B2, “Bacterial topoisomerase inhibitors and use thereof” (THE FLORIDA INTERNATIONAL UNIVERSITY BOARD OF TRUSTEES, priority 2016, dated 2018):
Converted amounts (≈) assume the structure as drawn.

Key:
[1] = test system: M. smegmatis mc2 155/pTA-M+; assay: microbe, parasite or virus in culture; format: cell-based; settings: Mycolicibacterium smegmatis, MC2155, read-out: MIC, M. smegmatis mc2 155/pTA-M+
M. smegmatis = M. smegmatis loss of viability (viable colony counts); format: cell-based

Row | SMILES | MIC [1] [µM] | Time course of loss of viable colony counts, MtbTopI overexpression (M. smegmatis)
1 | CCCC[C@@H](CN[C@H](CN)CCCCNC)NCc1cccc2ccccc12 [Compound 2471-12, (S)—N6-methyl-N2-((S)-2-(naphthalen-1-ylmethylamino)hexyl)hexane-1,2,6-triamine] | 50 (≈ 19.2 µg/mL) | reduction of cell killing
2 | CCCC[C@@H](CN[C@@H](CN)CCCCNC)NCc1cccc2ccccc12 [Compound 2471-36] | 50 (≈ 19.2 µg/mL) | 
